# Counter-ions that a name gives are not always drawn.
# Columns and labels:
# [1] = Aqueous solubility of Zoniporide / Zoniporide mesylate, including pH adjustment with acids; assay type: physicochemical
# Description: The most commercially feasible and the most pharmaceutically acceptable means, in this particular instance, for increasing solubility of Zoniporide was via pH adjustment.
# Further additions of methanesulfonic acid further improved solubility with decreasing pH.
# The phrase “increase (or increasing) the solubility” means increasing the solubility of Zoniporide or Zoniporide mesylate to a value greater than the solubility of Zoniporide mesylate in water (i.e. greater than about 18 mgA/mL).
# (§1) The use of methanesulfonic acid to lower the pH of pharmaceutical formulations is non-traditional in the pharmaceutical field. […] Typically, the pH of pharmaceutical intravenous formulations is not lower than about pH of 3, because of injection-site toleration problems that are inherent in low pH formulations. […] Reducing the pH below about 2, however, can further increase the concentration of Zoniporide, but may cause injection site toleration issues.
# [2] = Injection-site toleration of low-pH Zoniporide formulations; assay type: in vivo; conditions: formulations adjusted with methanesulfonic acid to as low as about pH 2
# Description: as §1
SMILES,"solubility of Zoniporide mesylate in water ([1]; in water, mgA/mL = mg/mL of active compound Zoniporide)","change in solubility on pH adjustment with methanesulfonic acid ([1]; addition of methanesulfonic acid, further additions further improved solubility with decreasing pH)","change in solubility on pH adjustment with typical pH adjusters ([1]; hydrochloric acid, sulfuric acid, phosphoric acid, aqueous solution, pH range acceptable for infusion)",injection-site toleration [2]
N=C(N)NC(=O)c1cnn(-c2cccc3ncccc23)c1C1CC1 [Zoniporide mesylate],about 18 mgA/mL,–,–,–
"N=C(N)NC(=O)c1cnn(-c2cccc3ncccc23)c1C1CC1 [Zoniporide, N-(5-cyclopropyl-1-quinolin-5-yl-1H-pyrazole-4-carbonyl)-guanidine]",–,increase in solubility,no significant increase in solubility,without the expected injection-site toleration issues

# — patent US20030149075A1, “Zoniporide mesylate pharmaceutical compositions and processes for improving solubility of zoniporide” (Pfizer Inc., priority 2002, published 2003)
